# Assay results as given in ChEMBL document CHEMBL6134907, “Synthesis of 5,9- and 5,8-Diaminoalkoxy Substituted Benzophenanthridinone Analogues as Tyrosyl-DNA Phosphodiesterase 1 Inhibitors and Their Radiosensitizing Activity” (J Med Chem, 2025).
# Calls of active or inactive are those of the source. The rule behind the calls is not given here.
# Experiments:
# [1] = molecular target: T1, Tyrosyl-DNA phosphodiesterase 1 (Homo sapiens, UniProt Q9NUW8); assay: Inhibition of recombinant TDP1 (unknown origin) assessed as substrate cleavage using 5'-Cy5-GATCTAAAAGACTT-pY-3' DNA substrate measured after 15 mins by gel-based assay
# T1 sequence (Q9NUW8 whole entry): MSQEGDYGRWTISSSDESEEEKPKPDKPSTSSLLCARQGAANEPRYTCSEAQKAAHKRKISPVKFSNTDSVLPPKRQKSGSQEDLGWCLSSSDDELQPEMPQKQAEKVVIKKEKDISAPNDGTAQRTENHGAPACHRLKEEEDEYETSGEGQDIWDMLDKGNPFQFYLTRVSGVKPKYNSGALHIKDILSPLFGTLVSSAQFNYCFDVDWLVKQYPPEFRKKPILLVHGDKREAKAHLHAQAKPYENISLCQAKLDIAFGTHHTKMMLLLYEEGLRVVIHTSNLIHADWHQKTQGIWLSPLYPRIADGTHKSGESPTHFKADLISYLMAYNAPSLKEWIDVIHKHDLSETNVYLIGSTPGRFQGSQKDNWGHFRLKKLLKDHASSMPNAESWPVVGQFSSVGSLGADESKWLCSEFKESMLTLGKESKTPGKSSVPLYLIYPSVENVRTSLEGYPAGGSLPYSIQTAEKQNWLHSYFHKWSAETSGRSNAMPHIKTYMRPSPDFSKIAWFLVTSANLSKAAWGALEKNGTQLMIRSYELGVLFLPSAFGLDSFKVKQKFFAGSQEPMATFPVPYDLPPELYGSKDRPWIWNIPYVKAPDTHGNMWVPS
# [2] = molecular target: T1, Tyrosyl-DNA phosphodiesterase 1; assay: Inhibition of recombinant TDP1 (unknown origin) assessed as substrate cleavage using 5'-Cy5-GATCTAAAAGACTT-pY-3' DNA substrate at 111 uM measured after 15 mins by gel-based assay
# HCT-116 [3] = assay: Radiosensitizing activity in human HCT-116 cells assessed as induction of 2 GY ionizing radiation (IR) induced cell killing effect; assay type: functional, cell-based
# HCT-116 [4] = assay: Cytotoxicity against human HCT116 cells assessed as cell killing at 0.1 uM relative to control; assay type: functional
# HCT-116 [5] = assay: Radiosensitizing activity in human HCT-116 cells assessed as sensitization of 2 GY ionizing radiation (IR) induced cell killing effect at 0.2 uM relative to control; assay type: functional
# HCT-116 [6] = assay: Cytotoxicity against human HCT116 cells assessed as cell killing at 0.2 uM relative to control; assay type: functional
# HCT-116 [7] = assay: Synergistic cytotoxicity against human HCT116 cells assessed as combination index at 0.5 uM incubated for 48 hrs in presence of 2GY ionizing radiation (IR); assay type: functional
IC50 [1],inhibition [2],Structure (SMILES),further results
17 µM,,COc1cc2c(cc1OCCCN1CCOCC1)c(=O)n(CCN(C)C)c1c3cc4c(cc3ccc21)OCO4,
29 µM,,COc1cc2c(cc1OCCN1CCCC1)c(=O)n(CCN(C)C)c1c3cc4c(cc3ccc21)OCO4,
,inactive,COc1cc2c(=O)n(CCN(C)C)c3c4cc5c(cc4ccc3c2cc1OCCN1CCCC1)OCO5,
4.7 µM,,COc1cc2c(=O)n(CCN(C)C)c3c4cc5c(cc4ccc3c2cc1OCCCN(C)C)OCO5,Activity (HCT-116 [3]): Active
16 µM,,COc1cc2c(cc1OCCN1CCCCC1)c(=O)n(CCN(C)C)c1c3cc4c(cc3ccc21)OCO4,
3.6 µM,,COc1cc2c(=O)n(CCN(C)C)c3c4cc5c(cc4ccc3c2cc1OCCCN1CCCC1)OCO5,Activity (HCT-116 [3]): Active
7.4 µM,,COc1cc2c(cc1OCCCN1CCCCC1)c(=O)n(CCN(C)C)c1c3cc4c(cc3ccc21)OCO4,Activity (HCT-116 [3]): Active
9.3 µM,,COc1cc2c(cc1OCCCN(C)C)c(=O)n(CCN(C)C)c1c3cc4c(cc3ccc21)OCO4,Activity (HCT-116 [3]): Active
6.9 µM,,COc1cc2c(=O)n(CCN(C)C)c3c4cc5c(cc4ccc3c2cc1OCCCN1CCCCC1)OCO5,
,inactive,COc1cc2c(=O)n(CCN(C)C)c3c4cc5c(cc4ccc3c2cc1OCCN1CCSCC1)OCO5,
46 µM,,COc1cc2c(cc1OCCN1CCN(C)CC1)c(=O)n(CCN(C)C)c1c3cc4c(cc3ccc21)OCO4,
,inactive,COc1cc2c(=O)n(CCN(C)C)c3c4cc5c(cc4ccc3c2cc1OCCCN1CCOCC1)OCO5,
5.4 µM,,COc1cc2c(cc1OCCCN1CCCC1)c(=O)n(CCN(C)C)c1c3cc4c(cc3ccc21)OCO4,Activity (HCT-116 [3]): Active
7.8 µM,,COc1cc2c(=O)n(CCN(C)C)c3c4cc5c(cc4ccc3c2cc1OCCCN1CCN(C)CC1)OCO5,Activity (HCT-116 [3]): Active
,inactive,COc1cc2c(cc1OCCN1CCOCC1)c(=O)n(CCN(C)C)c1c3cc4c(cc3ccc21)OCO4,
31 µM,,COc1cc2c(cc1OCCCN1CCN(C)CC1)c(=O)n(CCN(C)C)c1c3cc4c(cc3ccc21)OCO4,
22 µM,,COc1cc2c(=O)n(CCN(C)C)c3c4cc5c(cc4ccc3c2cc1OCCN1CCCCC1)OCO5,
5.7 µM,,COc1cc2c(=O)n(CCN(C)C)c3c4cc5c(cc4ccc3c2cc1OCCCN1CCSCC1)OCO5,Activity (HCT-116 [3]): Active; Activity (HCT-116 [4]): 19%; Activity (HCT-116 [5]): 93%; Activity (HCT-116 [6]): 73%; CI (HCT-116 [7]): <0.3
,inactive,COc1cc2c(cc1OCCCn1ccnc1)c(=O)n(CCN(C)C)c1c3cc4c(cc3ccc21)OCO4,
,inactive,COc1cc2c(=O)n(CCN(C)C)c3c4cc5c(cc4ccc3c2cc1OCCCn1ccnc1)OCO5,
6 µM,,COc1cc2c(=O)n(CCN(C)C)c3c4cc5c(cc4ccc3c2cc1OCCN1CCN(C)CC1)OCO5,Activity (HCT-116 [3]): Active

# Second part, the molecule before the results:
Structure (SMILES),IC50 [1],inhibition [2],further results
CCN(CC)CCCOc1cc2c(=O)n(CCN(C)C)c3c4cc5c(cc4ccc3c2cc1OC)OCO5,6.4 µM,,
COc1cc2c(cc1OCCN(C)C)c(=O)n(CCN(C)C)c1c3cc4c(cc3ccc21)OCO4,59 µM,,
COc1cc2c(=O)n(CCN(C)C)c3c4cc5c(cc4ccc3c2cc1OCCCNC12CC3CC(CC(C3)C1)C2)OCO5,1.6 µM,,Activity (HCT-116 [3]): Active
COc1cc2c(=O)n(CCN(C)C)c3c4cc5c(cc4ccc3c2cc1OCC(=O)N(C)C)OCO5,,inactive,
CCN(CC)C(=O)COc1cc2c(cc1OC)c(=O)n(CCN(C)C)c1c3cc4c(cc3ccc21)OCO4,,inactive,
CCN(CC)CCOc1cc2c(cc1OC)c(=O)n(CCN(C)C)c1c3cc4c(cc3ccc21)OCO4,43 µM,,
COc1cc2c(=O)n(CCN(C)C)c3c4cc5c(cc4ccc3c2cc1OCC(=O)N1CCOCC1)OCO5,,inactive,
CCCCN(CCCC)CCCOc1cc2c(cc1OC)c(=O)n(CCN(C)C)c1c3cc4c(cc3ccc21)OCO4,31 µM,,
CCCCN(CCCC)CCOc1cc2c(cc1OC)c(=O)n(CCN(C)C)c1c3cc4c(cc3ccc21)OCO4,23 µM,,
COc1cc2c(cc1OCCn1ccnc1)c(=O)n(CCN(C)C)c1c3cc4c(cc3ccc21)OCO4,,inactive,
CCN(CC)CCOc1cc2c(=O)n(CCN(C)C)c3c4cc5c(cc4ccc3c2cc1OC)OCO5,20 µM,,
COc1cc2c(=O)n(CCN(C)C)c3c4cc5c(cc4ccc3c2cc1OCCCc1ccccc1)OCO5,,inactive,
COc1cc2c(=O)n(CCN(C)C)c3c4cc5c(cc4ccc3c2cc1OCCc1ccccc1)OCO5,,inactive,
COc1cc2c(=O)n(CCN(C)C)c3c4cc5c(cc4ccc3c2cc1OCCN(C)C)OCO5,12 µM,,
COc1cc2c(=O)n(CCN(C)C)c3c4cc5c(cc4ccc3c2cc1OCCn1ccnc1)OCO5,33 µM,,
CCN(CC)CCCOc1cc2c(cc1OC)c(=O)n(CCN(C)C)c1c3cc4c(cc3ccc21)OCO4,10 µM,,Activity (HCT-116 [3]): Active
